Patent US8895717B2, “Delivery of siRNA by neutral lipid compositions” (The Board of Regents of the University of Texas System, priority 2005, dated 2014)
d = 2'-deoxy (DNA); r = 2'-OH (RNA)

Key:
[1] = tested on: FAK; experiment: FAK down-regulation by siRNA in vitro, Western blot; format: cell-based, human; conditions: for suppression of FAK expression: SKOV3, 72 hours of transfection
Protocol: siRNAs were synthesized and then purified using high-performance liquid chromatgraphy (Qiagen-Xeragon, Germantown, Md.). FAK siRNA sense: r(CCACCUGGGCCAGUAUUAU)d(TT) (SEQ ID NO:7); antisense: r(AUAAUACUGGCCCAGGUGG)d(TT) (SEQ ID NO:8) and control siRNA sense: r(UUUUCCGAACGUGUCACGU)dTT; (SEQ ID NO:9) antisense: r(ACGUGACACGUUCGGAGAA)dTT (SEQ ID NO:10) bearing no sequence homology with any known human mRNA sequences were dissolved in buffer (100 mmol/L potassium acetate, 30 mmol/L HEPES potassium hydroxide, 2 mmol/L magnesium acetate, pH 7.4) to a final concentration of […], heated to 90° C. for 60 seconds, incubated at 37° C. for 60 minutes, and stored at −20° C. until future use.
(§1) Cells were lysed in modified RIPA buffer (50 mM Tris, 150 mM NaCl, 1% triton, 0.5% deoxycholate plus 25 µg/ml leupeptin, 10 µg/ml aprotinin, 2 mM EDTA, and 1 mM sodium orthovanadate (Sigma Chemical Co, St. Louis, Mo.) as previously described (Sood et al., 2004; Sood et al., 2002). A sample was removed from culture dishes by cell scraping and centrifuged at 12,500 rpm for 30 min. The […] protein concentration of the supernatant was determined using a bicinchoninic acid protein assay reagent kit (Pierce, Rockford, Ill.), and whole cell lysates were analyzed by 7.5% SDS-PAGE. Samples were then transferred to nitrocellulose membrane by semi-dry transfer (BioRad Laboratories, Hercules, Calif.). Membranes were blocked with 5% nonfat milk, and incubated with 0.25 μg/mL anti-FAK antibody (Biosource, International Camarillo, Calif.) for 1 h at room temperature. Antibody was detected with 0.167 μg/mL HRP-conjugated anti-mouse secondary antibody (The Jackson Laboratory, Bar Harbor, Me.) and developed with an enhanced chemiluminescence detection kit (Pierce). Equal loading was confirmed by detection of β-actin (0.1 μg/ml, anti-β-actin antibody, Sigma Chemical). Densitometric analysis was performed using the Scion Imaging software (Scion Corporation, Frederick, Md.).
Next, the inventors sought to examine whether FAK silencing using siRNA will sensitize ovarian cancer cells to docetaxel.

[2] = tested on: caspase-3; experiment: Caspase-3 activity in ovarian cancer cells (DEVD-AFC); format: cell-based, human; conditions: taxane-sensitive and taxane-resistant cell lines
Protocol: Ovarian cancer cells (1×10^6) in culture (six-well plates) were treated with or without docetaxel at the cell line specific IC50 or IC90 concentration for 24 hours. After washing with PBS, cells were lysed in 50 μL of cell lysis buffer provided. Caspase-3, caspase-8, and caspase-9 activities were measured with the appropriate apoptosis detection kit (BD Biosciences/Clontech, Palo Alto, Calif.), using substrate DEVD-AFC for caspase-3, IETD-AFC for caspase-8, and LEHD-AMC for caspase-9.

[3] = tested on: FAK; experiment: In vivo down regulation of FAK by siRNA in DOPC (Western blot, IHC); set-up: species or system human; conditions: for FAK expression at the conclusion of the therapy studies: HeyA8, IHC
Protocol: siRNA for in vivo delivery was incorporated into the phospholipid 1,2-dioleoyl-sn-glycero-3-phosphatidylcholine (DOPC). DOPC and siRNA were mixed in the presence of excess tertiary-butanol at a ratio of […], as previously described (Landen et al., 2005). Tween-20 was added to the mixture at a ratio of 1:19. The mixture was vortexed, frozen in an acetone/dry ice bath, and lyophilized. Before in vivo administration, this preparation was hydrated with normal (0.9%) saline at a concentration of 15 μg/ml to achieve the desired dose of 150-200 μl per injection. To estimate the quantity of siRNA not taken up by liposomes free siRNA was separated from liposomes by using filter units with a 30,000 nominal molecular weight limit (Millipore Corp, Billerica, Mass.). The liposomal suspension was added to the filters and centrifuged at 5,000 g for 40 min at room temperature. Fractions were collected, the material trapped in the filter was reconstituted with 0.9% saline, and the amount of siRNA in the collected fraction and eluent were measured by spectrophotometry.
as §1
To evaluate the therapeutic effect of the combination of FAK siRNA and docetaxel in a mouse model, preliminary dose-response studies were performed experiments for FAK siRNA. HeyA8 cells were implanted i.p. and treatment was initiated 21 days following tumor injection when i.p. tumors could be assessed by palpation. Mice were randomly distributed into three groups (n=10 per group) and were treated with a single dose of PBS, control siRNA or FAK siRNA at 150 μg/kg in 200 μl volume. Following treatment, 3 mice were sacrificed at definite time-points (24 h, 48 h, 96 h and 6 days). Fluorescent IHC analysis was performed on any excised peritoneal cavity tumors as described below.
The inventors investigated the inhibition of FAK expression in combination with docetaxel and the in vivo therapeutic potential. Prior to initiating therapy studies, the ability of FAK-targeted siRNA incorporated in DOPC to down-regulate FAK in vivo was assessed. Nude mice bearing intraperitoneal HeyA8 tumors were injected with a single dose of FAK siRNA i.p., and tumors were harvested 1, 2, 4, and 6 days after injection for Western blot analysis and immunohistochemistry for assessing level of FAK expression. […] FAK expression was not affected by control siRNA. Twice weekly administration of siRNA (150 μg/kg) was selected as an exemplary dosing schedule for subsequent therapy experiments.

Row | Substance | suppression of FAK expression [1] | suppression of FAK expression ([1]; listed as FAK-specific siRNA) | FAK expression ([1]; after 24 hours of treatment) | caspase-3 activity, siRNA alone [2] | FAK expression at the conclusion of the therapy studies [3] | reduction in FAK levels ([3]; HeyA8 tumors, within 48 hours of a single dose in DOPC, Western blot) | persistence of FAK reduction ([3]; single dose in DOPC) | recovery of FAK expression ([3]; single treatment in DOPC) | FAK expression compared with untreated cells ([1]; SKOV3) | FAK expression ([3]; single dose)
1 | FAK siRNA: sense r(CCACCUGGGCCAGUAUUAU)d(TT), antisense r(AUAAUACUGGCCCAGGUGG)d(TT); for in vivo delivery incorporated into DOPC (sense CCACCUGGGCCAGUAUUAUTT; antisense AUAAUACUGGCCCAGGUGGTT; sugars from the 5' end r19 d2, backbone not given here) | 90% | > 90% | detectable decrease in FAK expression | did not potentiate the activity of caspase-3 | sustained suppression of FAK expression | > 80% | at least 4 days | began to return to basal levels by 6 days | – | –
2 | control siRNA: sense r(UUUUCCGAACGUGUCACGU)dTT, antisense r(ACGUGACACGUUCGGAGAA)dTT, no homology with human mRNA; in vivo in DOPC (sense UUUUCCGAACGUGUCACGUTT; antisense ACGUGACACGUUCGGAGAATT; sugars from the 5' end r19 d2, backbone not given here) | – | – | – | did not potentiate the activity of caspase-3 | not suppressed | – | – | – | did not significantly affect FAK expression | not affected
